Several values for one entry are separate records, joined by “and”; a condition that tells them apart may be missing. Identical values can stand only once. Counter-ions that a name gives are not always drawn. One block for each compound: values may come before it.
Key:
[1] = target: Rat Stomach Phospholipase A2 (Rattus norvegicus, UniProt P04055); assay: Phospholipase A2 assay (hydrolysis of 14C-arachidonyl phosphatidyl choline), rat stomach enzyme; assay type: biochemical; conditions: at 10^-4M; read-out: Percent Inhibition of the Hydrolytic Activity of Rat Stomach Phospholipase A2
Rat Stomach Phospholipase A2, sequence (P04055 23-146): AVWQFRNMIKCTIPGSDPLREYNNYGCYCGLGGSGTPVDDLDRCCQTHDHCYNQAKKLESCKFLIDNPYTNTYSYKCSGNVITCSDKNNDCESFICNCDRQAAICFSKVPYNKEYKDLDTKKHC
Method: (§1) The following procedure is a modification of the Phospholipase A₂ assay that was first described by Costentino et al., Prostaglandins, 22, 309 (1981) and is the method used herein to determine rat stomach and porcine pancreas phospholipas A₂ activity.
(§2) A suspension of phospholipase A₂ (Sigma Chemical Co., St. Louis, MO) is diluted with 25 millimolar (mM) Tris HCl buffer containing 1 mM calcium chloride to a final concentration of 10 micrograms of protein per milliliter (ml). Aliquots of 0.1 ml (7.1 units) of the enzyme suspension are added to each assay tube. Test compounds are added tin 0.01 ml aliquots in dimethyl sulfoxide or methanol and the volume is brought to 0.15 ml with the buffer. A preincubation is carried out at 37°C for 5 minutes. To start the reaction, 0.01 microcuries (0.179 nanomoles) of 2-arachidonyl (1-¹⁴C) 1-palmitoyl phosphatidyl choline (New England Nuclear, Boston, MA) are added to each tube, including three blank tubes containing no enzyme, and the incubation is carried out for 10 minutes at 37°C. The reaction is stopped with the addition of 0.07 ml of 1N HCl to each tube. Blanks, controls and each concentration of test compound are assayed in triplicate.
(§3) The reaction mixtures are extracted with ethyl acetate, and the organic and aqueous phases are separated by low speed centrifugation. The organic phase is dried under nitrogen and is then resuspended in 0.01 ml ethyl acetate. Arachidonic acid (50 micrograms in 0.01 ml methanol) is added to each tube as a carrier and standard. The entire mixture is spotted on silica gel G thin layer chromatography plates that are developed in a solvent system of ethyl acetate:acetic acid (99:1 by volume). […] Ten ml of Aquasol-2 (American Cyanamid Co., Wayne, NJ) are added to each vial, and the radioactivity is counted by liquid scintillation spectrometry.
(§4) The data are calculated as the ratio in percent of unesterified arachidonic acid to total radioactivity recovered. The potency of a compound is preferably determined by its IC₅₀ value (the concentration required to inhibit the reaction by 50 percent). […]

[2] = target: T1, Porcine Pancreas Phospholipase A2 (Sus scrofa, UniProt P00592); assay: Phospholipase A2 assay (hydrolysis of 14C-arachidonyl phosphatidyl choline), porcine pancreas enzyme; assay type: biochemical
T1 construct: purchased Sigma Chemical Co., St. Louis, MO; host or cells: porcine pancreas
T1 sequence (P00592 23-146): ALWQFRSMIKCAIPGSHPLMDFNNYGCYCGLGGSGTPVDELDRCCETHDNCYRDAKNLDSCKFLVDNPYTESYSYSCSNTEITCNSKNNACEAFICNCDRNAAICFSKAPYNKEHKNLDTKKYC
Method: as §1, §2, §3, §4

[3] = system: experimentally-induced inflammation in the mouse ear; assay: Mouse ear edema assay (topical anti-inflammatory activity); assay type: in vivo
Method: Compound 2 was also studied in a mouse ear edema assay to provide a measure of topical anti-inflammatory activity.
The topical antiinflammatory activity of a compound is determined by its ability to inhibit an experimentally-induced inflammation in the mouse ear. Croton oil, or 12-0-tetradecanoylphorbol acetate in acetone is dispensed onto the dorsum of one ear of the mouse. Five to six hours later the mice are sacrificed. A section of each ear is removed with a 7 mm cork borer and weighed on a electronic balance. The difference in weight between treated and untreated ears is determined. Compounds to be evaluated for antiinflammatory activity are incorporated in the croton oil irritant mixture, or applied in an appropriate vehicle.

inhibition at 100 µM [1]: 55%
Compound: CCCCCCCCCCCC/C=C\[C@@H](SC[C@H](NC(=O)CC[C@H](N)C(=O)O)C(=O)NCC(=O)O)[C@@H](O)CCCCOC1CCCCO1 (stereo partly drawn) [Compound 3, S-6-[(5S,6R)-5-hydroxy-1-(2-tetrahydropyranyloxy)-7(Z)-eicosenyl] glutathione triethylammonium salt dihydrate]

Percent Inhibition of the Hydrolytic Activity of Porcine Pancreas Phospholipase A2 ([2]; at 10^-5 Molar (M), three independent trials, 10 µM): 62% and 86% and 68%
Compound: CCCCCCCCCCCC/C=C\[C@@H](SC[C@H](NC(C)=O)C(=O)OC)[C@@H](O)CCCCO [Compound 2, Methyl N-acetyl-S-6[(5S,6R)-1,5-dihydroxy-7(Z)-eicosenyl]-(R)-cysteinate]
Inhibition (percent) Mouse No. 1 ([3]; 50 micrograms): 33%
Inhibition (percent) Mouse No. 2 ([3]; 50 micrograms): 68%
Inhibition (percent) Mouse No. 1 ([3]; 100 micrograms): 53%
Inhibition (percent) Mouse No. 2 ([3]; 100 micrograms): 72%
Inhibition (percent) Mouse No. 1 ([3]; 200 micrograms): 62%
Inhibition (percent) Mouse No. 2 ([3]; 200 micrograms): 82%
Inhibition (percent) Mouse No. 1 ([3]; 400 micrograms): 75%
Inhibition (percent) Mouse No. 2 ([3]; 400 micrograms): 80%

inhibition at 100 µM [1]: 58%
Percent Inhibition of the Hydrolytic Activity of Porcine Pancreas Phospholipase A2 ([2]; at 10^-4M, 100 µM): 73%
inhibition at 100 µM ([2]; at 10^-4M, read-out: Percent Inhibition of the Hydrolytic Activity of Porcine Pancreas Phospholipase A2): 72%
Compound: CCCCCCCCCCCC/C=C\[C@@H](SC[C@H](NC(C)=O)C(=O)OC)C(CCCCO)=NO [Compound 14, Methyl N-acetyl-S-6-[(5S,6R)-1-hydroxy-5-oximino-7(Z)-eicosenyl]-(R)-cysteinate]

inhibition at 100 µM [1]: 40%
Compound: CCCCCCCCCCCC/C=C\[C@@H](SC[C@H](N)C(=O)O)[C@@H](O)CCCCO [Compound 4, (5S,6R)-6-[S-(R)-cysteinyl] -7(Z)-eicosen-1,5-diol hemihydrate]

From patent publication EP0248597A2, “Phospholipase A2 inhibitors and methods of synthesis” (ORTHO PHARMACEUTICAL CORPORATION, priority 1986, dated 1987)
